Data: patent US20220305012A1, “L[…] TREATING SLEEP ISSUES” (EISAI R&D MANAGEMENT CO., LTD., priority 2019, published 2022)

Experiments:
Type in all cases: in vivo, human
[1] = test system: Subjects Having Insomnia Disorder; assay: Example 1: treatment-emergent adverse events; conditions: for TEAEs: Safety Analysis Set
Protocol: Subjects were randomized in a double-blind manner and received either placebo, 5 mg of lemborexant, or 10 mg of lemborexant (approximately 1:1:1 randomization). All subjects underwent routine safety monitoring through the study, including assessments of treatment-emergent adverse events, 12-lead electrocardiograms, vital signs, weight, and clinical hematology and blood chemistry labs. Suicidality was assessed using the eC-SSRS.
Safety endpoints for this study included the safety and tolerability of lemborexant (1) compared to placebo (during treatment period 1) and (2) in subjects exposed to lemborexant for 3, 6, 9, and 12 months.

[2] = test system: Subjects Having Insomnia Disorder; assay: Example 1: Insomnia Severity Index Daytime Functioning (Items 4-7)
Description: (§1) As used herein, the term “Insomnia Severity Index”, abbreviated as “ISI”, is an index calculated using a 7-item, self-report questionnaire assessing the nature, severity, and impact of insomnia (see Bastien, C. H., et al. “Validation of the Insomnia Severity Index as an outcome measure for insomnia research.” Sleep Med. 2001; 2(4): 297-307). The questionnaire evaluates: (1) severity of sleep onset; (2) sleep maintenance; (3) early morning awakening problems; (4) sleep dissatisfaction; (5) interference caused by sleep difficulties with daytime functioning; (6) noticeability of sleep problems by others; and (7) distress caused by the sleep difficulties. A 5-point scale is used to rate each item (0=no problem to 4=very severe problem) yielding a total score from 0 to 28. Total ISI score (items (1)-(7)) and daytime functioning (items (4)-(7)) are analyzed separately.
(§2) Month 1 Assessment: Standard safety assessments were performed on the subject. A blood sample was collected for determination of plasma concentration of lemborexant and its metabolites, and the ISI, FSS, PGI-Insomnia, EQ-5D-3L, and eC-SSR were completed.
(§3) Month 3 Assessment: All assessments conducted at the Month 1 Assessment were repeated.
(§4) Month 6 Assessment: All assessments conducted at the Month 1 Assessment were repeated, and subjects completed the WPAI-GH.
In addition to the aforementioned study endpoints, the study included several additional secondary endpoints: • Mean change from study baseline of subjective sleep onset latency, subjective sleep efficiency, subjective wake after sleep onset, and subjective total sleep time at the beginning of treatment (mean of the 7 nights after the first dose in Period 1), at Month 1 and at Month 3. • Mean change from study baseline of subjective total sleep time at Month 6. • Change from study baseline in daytime functioning, assessed as the total score from the 4 items on daytime functioning, on the Insomnia Severity Index, at Months 1, 3, and 6.

[3] = test system: Subjects Having Insomnia Disorder; assay: Example 1: Insomnia Severity Index Total Score (Items 1-7)
Description: as §1, §2, §3, §4

[4] = 5 mg, change from Study Baseline after 1 Month
[5] = 5 mg, change from Study Baseline after 3 Months
[6] = 10 mg, change from Study Baseline after 1 Month
[7] = 10 mg, change from Study Baseline after 3 Months

**Q.** Which results are given for Cc1ncc(OC[C@@]2(c3cccc(F)c3)C[C@H]2C(=O)Nc2ccc(F)cn2)c(C)n1 [Lemborexant, (1R,2S)-2-(((2,4-dimethylpyrimidin-5-yl)oxy)methyl)-2-(3-fluorophenyl)-N-(5-fluoropyridin-2-yl)cyclopropanecarboxamide]?
**A.** Deaths ([1]; 5 mg (N = 314)): 0 n (%); Other SAEs ([1]; 5 mg (N = 314)): 7 (2.2) n (%); SAEs: Congenital anomaly/birth defect ([1]; 5 mg (N = 314)): 0 n (%); SAEs: Important medical events ([1]; 5 mg (N = 314)): 1 (0.3) n (%); SAEs: Life threatening ([1]; 5 mg (N = 314)): 0 n (%); SAEs: Persistent or significant disability or incapacity ([1]; 5 mg (N = 314)): 0 n (%); SAEs: Requires inpatient hospitalization or prolongation of existing hospitalization ([1]; 5 mg (N = 314)): 6 (1.9) n (%); Serious TEAEs ([1]; 5 mg (N = 314)): 7 (2.2) n (%); Severe TEAEs ([1]; 5 mg (N = 314)): 13 (4.1) n (%); TEAEs leading to study dose reduced ([1]; 5 mg (N = 314)): 0 n (%); TEAEs leading to study drug dose adjustment ([1]; 5 mg (N = 314)): 25 (8.0) n (%); TEAEs leading to study drug interrupted ([1]; 5 mg (N = 314)): 13 (4.1) n (%); TEAEs leading to study drug withdrawal ([1]; 5 mg (N = 314)): 13 (4.1) n (%); Treatment-related TEAEs ([1]; 5 mg (N = 314)): 78 (24.8) n (%); TEAEs ([1]; 5 mg (N = 314)): 192 (61.1) n (%); Deaths ([1]; 10 mg (N = 314)): 0 n (%); Other SAEs ([1]; 10 mg (N = 314)): 9 (2.9) n (%); SAEs: Congenital anomaly/birth defect ([1]; 10 mg (N = 314)): 0 n (%); SAEs: Important medical events ([1]; 10 mg (N = 314)): 0 n (%); SAEs: Life threatening ([1]; 10 mg (N = 314)): 0 n (%); SAEs: Persistent or significant disability or incapacity ([1]; 10 mg (N = 314)): 0 n (%); SAEs: Requires inpatient hospitalization or prolongation of existing hospitalization ([1]; 10 mg (N = 314)): 9 (2.9) n (%); Serious TEAEs ([1]; 10 mg (N = 314)): 9 (2.9) n (%); Severe TEAEs ([1]; 10 mg (N = 314)): 8 (2.5) n (%); TEAEs leading to study dose reduced ([1]; 10 mg (N = 314)): 0 n (%); TEAEs leading to study drug dose adjustment ([1]; 10 mg (N = 314)): 33 (10.5) n (%); TEAEs leading to study drug interrupted ([1]; 10 mg (N = 314)): 8 (2.5) n (%); TEAEs leading to study drug withdrawal ([1]; 10 mg (N = 314)): 26 (8.3) n (%); Treatment-related TEAEs ([1]; 10 mg (N = 314)): 91 (29.0) n (%); TEAEs ([1]; 10 mg (N = 314)): 187 (59.6) n (%); safety and tolerability (incidence of adverse events) ([1]; Example 1 (Table 11)): safe and well-tolerated; ISI Daytime Functioning (Items 4-7), Mean ([2]; 5 mg, Month 1): 7.2; ISI Daytime Functioning (Items 4-7), Median ([2]; 5 mg, Month 1): 7.0; ISI Daytime Functioning (Items 4-7), Mean ([2]; 5 mg, Month 3): 6.2; ISI Daytime Functioning (Items 4-7), Median ([2]; 5 mg, Month 3): 6.0; ISI Daytime Functioning (Items 4-7), Mean ([2]; 5 mg, Month 6): 5.4; ISI Daytime Functioning (Items 4-7), Median ([2]; 5 mg, Month 6): 5.0; ISI Daytime Functioning Change from Study Baseline, Mean ([2]; 5 mg, Month 6): −6.0; ISI Daytime Functioning Change from Study Baseline, Median ([2]; 5 mg, Month 6): −6.0; ISI Daytime Functioning LSM treatment difference: Lemborexant/Placebo ([2]; 5 mg, Month 6): −1.30; ISI Daytime Functioning (Items 4-7), Mean ([2]; 5 mg, Study Baseline): 11.4; ISI Daytime Functioning (Items 4-7), Median ([2]; 5 mg, Study Baseline): 11.0; ISI Daytime Functioning Change from Study Baseline, Mean ([2]; 5 mg, after 1 Month): −4.1; ISI Daytime Functioning Change from Study Baseline, Median ([2]; 5 mg, after 1 Month): −3.0; ISI Daytime Functioning Change from Study Baseline, Mean ([2]; 5 mg, after 3 Months): −5.2; ISI Daytime Functioning Change from Study Baseline, Median ([2]; 5 mg, after 3 Months): −5.0; ISI Daytime Functioning LSM treatment difference: Lemborexant/Placebo [2, 4]: −0.71; ISI Daytime Functioning LSM treatment difference: Lemborexant/Placebo [2, 5]: −1.16; ISI Daytime Functioning (Items 4-7), Mean ([2]; 10 mg, Month 1): 7.0; ISI Daytime Functioning (Items 4-7), Median ([2]; 10 mg, Month 1): 7.0; ISI Daytime Functioning (Items 4-7), Mean ([2]; 10 mg, Month 3): 6.0; ISI Daytime Functioning (Items 4-7), Median ([2]; 10 mg, Month 3): 5.0; ISI Daytime Functioning (Items 4-7), Mean ([2]; 10 mg, Month 6): 5.4; ISI Daytime Functioning (Items 4-7), Median ([2]; 10 mg, Month 6): 5.0; ISI Daytime Functioning Change from Study Baseline, Mean ([2]; 10 mg, Month 6): −5.7; ISI Daytime Functioning Change from Study Baseline, Median ([2]; 10 mg, Month 6): −6.0; ISI Daytime Functioning LSM treatment difference: Lemborexant/Placebo ([2]; 10 mg, Month 6): −1.32; ISI Daytime Functioning (Items 4-7), Mean ([2]; 10 mg, Study Baseline): 11.0; ISI Daytime Functioning (Items 4-7), Median ([2]; 10 mg, Study Baseline): 11.0; ISI Daytime Functioning Change from Study Baseline, Mean ([2]; 10 mg, after 1 Month): −4.2; ISI Daytime Functioning Change from Study Baseline, Median ([2]; 10 mg, after 1 Month): −4.0; ISI Daytime Functioning Change from Study Baseline, Mean ([2]; 10 mg, after 3 Months): −5.2; ISI Daytime Functioning Change from Study Baseline, Median ([2]; 10 mg, after 3 Months): −5.0; ISI Daytime Functioning LSM treatment difference: Lemborexant/Placebo [2, 6]: −0.94; ISI Daytime Functioning LSM treatment difference: Lemborexant/Placebo [2, 7]: −1.36; insomnia severity index score compared with placebo ([3]; 5 mg and 10 mg, at the equivalent timepoint (Tables 6 and 7: daytime functioning and total score)): greater decrease in insomnia severity index score than subjects treated with placebo; ISI Total Score (Items 1-7), Mean ([3]; 5 mg, Month 1): 12.6; ISI Total Score (Items 1-7), Median ([3]; 5 mg, Month 1): 12.0; ISI Total Score (Items 1-7), Mean ([3]; 5 mg, Month 3): 10.8; ISI Total Score (Items 1-7), Median ([3]; 5 mg, Month 3): 10.0; ISI Total Score (Items 1-7), Mean ([3]; 5 mg, Month 6): 9.6; ISI Total Score (Items 1-7), Median ([3]; 5 mg, Month 6): 9.0; ISI Total Score (Items 1-7), Mean ([3]; 5 mg, Study Baseline): 19.6; ISI Total Score (Items 1-7), Median ([3]; 5 mg, Study Baseline): 19.0; ISI Total Score Change from Study Baseline, Mean ([3]; 5 mg, after 1 Month): −7.1; ISI Total Score Change from Study Baseline, Median ([3]; 5 mg, after 1 Month): −6.0; ISI Total Score Change from Study Baseline, Mean ([3]; 5 mg, after 3 Months): −8.6; ISI Total Score Change from Study Baseline, Median ([3]; 5 mg, after 3 Months): −8.0; ISI Total Score Change from Study Baseline, Mean ([3]; 5 mg, after 6 Months): −9.9; ISI Total Score Change from Study Baseline, Median ([3]; 5 mg, after 6 Months): −10.0; ISI Total Score LSM treatment difference: Lemborexant/Placebo [3, 4]: −1.47; ISI Total Score LSM treatment difference: Lemborexant/Placebo [3, 5]: −2.02; ISI Total Score LSM treatment difference: Lemborexant/Placebo ([3]; 5 mg, change from Study Baseline after 6 Months): −2.10; ISI Total Score (Items 1-7), Mean ([3]; 10 mg, Month 1): 12.0; ISI Total Score (Items 1-7), Median ([3]; 10 mg, Month 1): 12.0; ISI Total Score (Items 1-7), Mean ([3]; 10 mg, Month 3): 10.2; ISI Total Score (Items 1-7), Median ([3]; 10 mg, Month 3): 10.0; ISI Total Score (Items 1-7), Mean ([3]; 10 mg, Month 6): 9.4; ISI Total Score (Items 1-7), Median ([3]; 10 mg, Month 6): 9.0; ISI Total Score (Items 1-7), Mean ([3]; 10 mg, Study Baseline): 19.0; ISI Total Score (Items 1-7), Median ([3]; 10 mg, Study Baseline): 19.0; ISI Total Score Change from Study Baseline, Mean ([3]; 10 mg, after 1 Month): −7.2; ISI Total Score Change from Study Baseline, Median ([3]; 10 mg, after 1 Month): −6.0; ISI Total Score Change from Study Baseline, Mean ([3]; 10 mg, after 3 Months): −8.9; ISI Total Score Change from Study Baseline, Median ([3]; 10 mg, after 3 Months): −9.0; ISI Total Score Change from Study Baseline, Mean ([3]; 10 mg, after 6 Months): −9.8; ISI Total Score Change from Study Baseline, Median ([3]; 10 mg, after 6 Months): −9.5; ISI Total Score LSM treatment difference: Lemborexant/Placebo [3, 6]: −1.87; ISI Total Score LSM treatment difference: Lemborexant/Placebo [3, 7]: −2.57; ISI Total Score LSM treatment difference: Lemborexant/Placebo ([3]; 10 mg, change from Study Baseline after 6 Months): −2.35
